Source: ChEMBL document CHEMBL4118120, “Identification of a novel selective small-molecule inhibitor of protein arginine methyltransferase 5 (PRMT5) by virtual screening, resynthesis and biological evaluations” (Bioorg Med Chem Lett, 2018)
The source made the active and inactive calls. No cut-off for these calls is given here.

Columns and labels:
[1] = molecular target: T1, PRMT5/MEP50 complex (Homo sapiens) (UniProt O14744+Q9BQA1); assay: (§1) Inhibition of recombinant human N-terminal FLAG-tagged PRMT5 (2 to end residues) /human N-terminal His-tagged MEP50 (2 to end residues) expressed in HEK293F cells at 50 uM using substrate pretreated for 15 mins followed by substrate and [3H]-SAM addition measured after 60 mins by scintillation proximity assay relative to control; assay type: cell-based
[2] = molecular target: T2, PRMT5/MEP50 complex (Homo sapiens, UniProt O14744); assay: as §1, with “cells” for “cells at 50 uM”, “assay” for “assay relative to control”; assay type: cell-based
T2 sequence (O14744 whole entry): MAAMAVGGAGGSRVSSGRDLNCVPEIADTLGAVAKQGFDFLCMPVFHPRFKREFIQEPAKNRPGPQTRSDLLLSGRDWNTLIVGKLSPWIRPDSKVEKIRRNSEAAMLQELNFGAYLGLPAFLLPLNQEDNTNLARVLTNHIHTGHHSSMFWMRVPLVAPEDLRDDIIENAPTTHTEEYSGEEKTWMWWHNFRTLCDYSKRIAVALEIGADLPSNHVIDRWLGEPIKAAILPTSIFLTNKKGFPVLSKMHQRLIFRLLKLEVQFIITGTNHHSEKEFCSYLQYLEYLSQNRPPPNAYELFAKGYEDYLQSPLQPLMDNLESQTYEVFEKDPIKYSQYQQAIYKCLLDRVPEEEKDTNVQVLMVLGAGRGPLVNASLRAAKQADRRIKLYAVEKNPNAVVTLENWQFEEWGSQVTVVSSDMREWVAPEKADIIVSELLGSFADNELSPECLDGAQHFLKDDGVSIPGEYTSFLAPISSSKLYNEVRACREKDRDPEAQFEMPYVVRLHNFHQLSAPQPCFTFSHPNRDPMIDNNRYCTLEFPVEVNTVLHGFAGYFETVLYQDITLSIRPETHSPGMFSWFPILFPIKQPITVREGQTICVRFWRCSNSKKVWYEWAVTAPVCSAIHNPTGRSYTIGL
T2 sequence (Q9BQA1 whole entry, further chain): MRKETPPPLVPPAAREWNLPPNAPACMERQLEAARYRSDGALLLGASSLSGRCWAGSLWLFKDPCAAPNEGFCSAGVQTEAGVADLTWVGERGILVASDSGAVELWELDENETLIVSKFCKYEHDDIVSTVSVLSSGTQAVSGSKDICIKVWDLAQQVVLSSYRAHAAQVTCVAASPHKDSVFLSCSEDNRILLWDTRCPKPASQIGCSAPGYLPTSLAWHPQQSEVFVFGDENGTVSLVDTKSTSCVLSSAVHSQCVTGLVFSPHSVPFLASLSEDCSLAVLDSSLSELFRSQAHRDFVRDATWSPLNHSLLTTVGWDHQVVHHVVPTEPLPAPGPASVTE

[3] = molecular target: T1, PRMT5/MEP50 complex (Homo sapiens); assay: as §1, with “at 100” for “at 50”; assay type: cell-based
[4] = molecular target: T2, PRMT5/MEP50 complex; assay: Inhibition of recombinant human N-terminal FLAG-tagged PRMT5 (2 to end residues) /human N-terminal His-tagged MEP50 (2 to end residues) expressed in HEK293F cells using substrate measured after 60 mins by Alphalisa assay; assay type: cell-based
[5] = molecular target: T2, PRMT5/MEP50 complex; assay: Inhibition of recombinant human N-terminal FLAG-tagged PRMT5 (2 to end residues) /human N-terminal His-tagged MEP50 (2 to end residues) expressed in HEK293F cells using biotinylated H4 derived peptide as substrate pretreated for 15 mins followed by substrate and [3H]-SAM addition measured after 60 mins by liquid scintillation counting method
[6] = tested on: MV4-11; assay: Antiproliferative activity against human MV411 cells after 4 days by Celltiiter-Glo luminescence cell viability assay; conditions: MV4-11, 96 h
[7] = molecular target: Protein arginine N-methyltransferase 1 (Homo sapiens, UniProt Q99873); assay: Inhibition of recombinant human N-terminal GST-tagged PRMT1 (2 to end residues) expressed in baculovirus infected Sf9 insect cells using peptide substrate pretreated for 15 mins followed by substrate/[3H]-SAM addition measured after 60 mins by scintillation proximity assay
Protein arginine N-methyltransferase 1, sequence (Q99873 whole entry): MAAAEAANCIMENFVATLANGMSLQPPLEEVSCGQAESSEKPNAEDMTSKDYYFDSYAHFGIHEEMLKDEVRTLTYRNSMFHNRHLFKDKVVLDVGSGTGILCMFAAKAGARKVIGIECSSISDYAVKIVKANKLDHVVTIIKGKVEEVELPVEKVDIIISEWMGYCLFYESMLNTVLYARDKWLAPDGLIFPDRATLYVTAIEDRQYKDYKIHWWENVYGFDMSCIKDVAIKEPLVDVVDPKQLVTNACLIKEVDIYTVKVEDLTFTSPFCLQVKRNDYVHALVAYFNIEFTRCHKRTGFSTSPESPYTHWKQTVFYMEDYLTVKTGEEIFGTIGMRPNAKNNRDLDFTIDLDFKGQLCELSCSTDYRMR

[8] = molecular target: Protein arginine N-methyltransferase 5 (Homo sapiens) (UniProt O14744); assay: Inhibition of PRMT5 in human MV411 cells assessed as upregulation of Gas1 expression at 30 uM by SYBR green dye based RT-qPCR analysis; assay type: cell-based
Protein arginine N-methyltransferase 5 (Homo sapiens), sequence (O14744 whole entry): as the sequence (O14744 whole entry) above

[9] = molecular target: T3, Histone-arginine methyltransferase CARM1 (Homo sapiens, UniProt Q86X55); assay: Inhibition of recombinant human N-terminal FLAG-tagged CARM1 (2 to end residues) expressed in HEK293F cells pretreated for 15 mins followed by substrate addition measured after 60 mins by Alphalisa assay; assay type: cell-based
T3 sequence (Q86X55 whole entry): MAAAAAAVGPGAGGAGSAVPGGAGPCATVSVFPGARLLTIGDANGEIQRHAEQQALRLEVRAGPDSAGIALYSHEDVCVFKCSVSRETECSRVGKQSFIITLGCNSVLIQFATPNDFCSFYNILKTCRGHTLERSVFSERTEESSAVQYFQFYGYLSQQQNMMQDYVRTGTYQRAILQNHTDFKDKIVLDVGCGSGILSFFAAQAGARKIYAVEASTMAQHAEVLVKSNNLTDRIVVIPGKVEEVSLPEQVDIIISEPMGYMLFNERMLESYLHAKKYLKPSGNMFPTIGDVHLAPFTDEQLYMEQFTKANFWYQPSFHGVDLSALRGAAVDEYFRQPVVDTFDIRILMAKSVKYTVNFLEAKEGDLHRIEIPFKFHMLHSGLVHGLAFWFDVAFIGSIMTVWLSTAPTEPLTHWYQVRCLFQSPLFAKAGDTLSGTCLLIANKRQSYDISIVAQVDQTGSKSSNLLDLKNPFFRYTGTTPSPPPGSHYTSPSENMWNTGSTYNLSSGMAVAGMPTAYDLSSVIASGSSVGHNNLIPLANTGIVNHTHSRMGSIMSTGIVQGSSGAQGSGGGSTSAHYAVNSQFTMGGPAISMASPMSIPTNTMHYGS

| inhibition [1] [%] | SMILES | also measured |
| --- | --- | --- |
| 71 | Cc1cc(-c2csc(Nc3ccc(O)c(C(=O)O)c3)n2)ccc1F | IC50 [2]: 22 µM |
| 7 | CCCOc1ccc(Nc2nc(-c3cc4cc(OC)ccc4oc3=O)cs2)cc1 | – |
| 7 | CC[n+]1c(-c2ccccc2)csc1Nc1ccc(O)c(C(=O)O)c1 | – |
| 10 | COc1ccc(Nc2nc(-c3cc4ccccc4o3)cs2)cc1 | – |
| – | CCN(CC)CCCNC(=O)c1ccc(OC)c([N+](=O)[O-])c1 | IC50 [2]: 42 µM; inhibition [3]: > 50% |
| 3.5 | COc1ccc(-c2csc(NC(=O)c3ccccc3Cl)n2)cc1C | – |
| 21 | COc1ccc(-c2csc(NC3=CS(=O)(=O)c4ccccc43)n2)cc1OC | – |
| 9 | COc1ccc(-c2csc(NC(=S)NC(=O)c3ccc(C(C)(C)C)cc3)n2)cc1Br | – |
| 61 | O=C(O)COc1ccc(Br)cc1-c1csc(Nc2ccc(Br)cc2)n1 | IC50 [2]: 44 µM |
| – | NC(=O)N/N=C/c1ccc(-c2ccc(Cl)cc2)o1 | IC50 [4]: 0.57 µM |
| 0 | COc1ccc(Nc2nc(-c3ccc(OCc4ccc(Br)cc4)cc3)cs2)cc1 | – |
| 26.4 | COc1ccc(-c2csc(Nc3ccc(C)c(Cl)c3)n2)cc1F | – |
| 8 | COc1ccc(Br)cc1C(=O)NC(=S)Nc1nc(-c2ccccc2)cs1 | – |
| 33 | COc1cc(Cl)c(OC)c(Nc2nc(-c3ccc(C)cc3)cs2)c1 | – |
| – | OC(CNCc1c(OCc2ccccc2)ccc2ccccc12)c1ccccc1 (configuration not stated) | IC50 [5]: 2.8 µM |
| 0 | COc1ccc(Nc2nc(-c3ccc(OCc4ccc([N+](=O)[O-])cc4)cc3)cs2)cc1 | – |

| inhibition [1] [%] | SMILES | also measured |
| --- | --- | --- |
| 24 | COc1cc(Nc2nc(-c3cc(C)ccc3C)cs2)c(OC)cc1Cl | – |
| 80 | Cc1ccc(C)c(-c2csc(Nc3ccc(O)c(C(=O)O)c3)n2)c1 | IC50 [2]: 35 µM; inhibition [3]: > 50% |
| – | COc1cc(Br)c(Br)c(/C=N/c2cccc(-c3nc4ccccc4[nH]3)c2)c1O | IC50 [2]: 48 µM; inhibition [3]: > 50% |
| 23 | COc1ccc(OC)c(Nc2nc(-c3ccc4ccccc4c3)cs2)c1 | – |
| 9 | COc1ccccc1Nc1nc(-c2cc3cc(Br)ccc3oc2=O)cs1 | – |
| 95 | COc1ccc(-c2csc(Nc3ccc(O)c(C(=O)O)c3)n2)cc1C | EC50 [6]: 22.5 µM; IC50 [7]: > 100 µM; inhibition [8]: Active; IC50 [2]: 14 µM; IC50 [9]: > 100 µM |
| 25 | COc1ccc(-c2csc(Nc3ccc4c(c3)OCO4)n2)cc1Br | – |
| 0 | CCOc1ccccc1Nc1nc(-c2cc3cc(OC)ccc3oc2=O)cs1 | – |
| 3.5 | COc1ccc(Cl)cc1C(=O)Nc1nc(-c2ccc(C)c(C)c2)cs1 | – |
| 28.1 | COc1ccc(-c2csc(Nc3ccc(Cl)c(Cl)c3)n2)cc1 | – |
| 27.4 | COc1cccc(Nc2nc(-c3ccc(OC)c(Br)c3)cs2)c1 | – |
| 25 | CCOc1ccc(-c2csc(Nc3ccc(Cl)cc3)n2)cc1[N+](=O)[O-] | – |
| 6 | COc1ccccc1Nc1nc(-c2ccc3ccccc3c2)cs1 | – |
| 20 | COc1ccc(OC)c(Nc2nc(-c3ccc(Cl)cc3Cl)cs2)c1 | – |
| 0 | CCOc1cc(C(=O)Nc2nc(-c3ccc(C)cc3C)cs2)cc(OCC)c1OCC | – |
